Results published in patent US20240090503A1, “FUNGICIDAL OXADIAZOLES AND THEIR MIXTURES” (FMC CORPORATION, priority 2020, published 2024).
Read-outs that look alike come from different tables or passages of the source.

Legend:
[1] = system: Puccinia recondita f. sp. tritici (the causal agent of wheat leaf rust); test: Test C: preventive spray on wheat seedlings, wheat leaf rust, visual disease rating; format: in vivo; conditions: for pest or weed control at 10 µg/mL: Puccinia recondita, 168 h, read-out: Test C disease control rating
Excerpt: (§1) General protocol for preparing test suspensions for Tests A-D: the test compounds were first dissolved in acetone in an amount equal to 3% of the final volume and then suspended at the desired concentration (in ppm) in acetone and purified water (50/50 mix by volume) containing 250 ppm of the surfactant PEG400 (polyhydric alcohol esters). The resulting test suspensions were then used in Tests A-D.
(§2) The test suspension was sprayed to the point of run-off on wheat seedlings. The following day the seedlings were inoculated with a spore suspension of Puccinia recondita f. sp. tritici; (the causal agent of wheat leaf rust) and incubated in a saturated atmosphere at 20° C. for 24 h, and then moved to a growth chamber at 20° C. for 6 days, after which time visual disease ratings were made.
(§3) The test results for Tests A-C presented in Table A below for compounds of Formula 1 illustrate the fungicidal activity of component (a) contributing to the plant disease control utility of compositions comprising component (a) in combination with component (b) according to the present invention. In the Table, a rating of 100 indicates 100% disease control and a rating of 0 indicates no disease control (relative to the controls). A dash (-) indicates the compound was not tested. The test suspensions were sprayed at the concentration listed in the column “Rate in ppm”, unless otherwise indicated. An asterisk “*” next to the rating indicates a 250 ppm test suspension was used, a double asterisk “**” next to the rating indicates a 100 ppm test suspension was used, and a triple asterisk “***” next to the rating indicates a 50 ppm test suspension was used.

[2] = system: Phakopsora pachyrhizi (the causal agent of Asian soybean rust); test: Test A: preventive spray on soybean seedlings, Asian soybean rust, visual disease rating; format: in vivo; conditions: for pest or weed control at 10 µg/mL: Phakopsora pachyrhizi, 216 h, read-out: Test A disease control rating
Excerpt: as §1
as §2, with “soybean” for “wheat”, “Phakopsora pachyrhizi” for “Puccinia recondita f. sp. tritici;”, “Asian soybean” for “wheat leaf”, “22°” for “20°”, “h” for “h,”, “8” for “6”
as §3

[3] = test suspension 10 ppm, wheat seedlings
[4] = test suspension 10 ppm, soybean seedlings, 100 = 100% disease control, 0 = no control
[5] = 50 ppm test suspension, wheat seedlings, 100 = 100% disease control, 0 = no control
[6] = 50 ppm test suspension, soybean seedlings, 100 = 100% disease control, 0 = no control

SMILES | Test C disease control rating [1, 3] | Test A disease control rating [2, 4] | other results
O=C(O)c1cc(C(=O)O)n(Cc2ccc(-c3noc(C(F)(F)F)n3)cc2)n1 [compound 140] | 0% | 0% | 
COC(=O)c1cnn(CCCc2ccc(-c3noc(C(F)(F)F)n3)cc2)c1 [compound 427] |  |  | Test C disease control rating [1, 5]: 67%; Test A disease control rating [2, 6]: 100%
Cc1ccc(F)cc1OCc1ccc(-c2noc(C(F)(F)F)n2)s1 [compound 375] | 98% | 100% | 
CCOC(=O)c1cnn(Cc2cc(OC)c(-c3noc(C(F)(F)F)n3)s2)c1 [compound 336] | 0% | 0% | 
CON(C)C(=O)c1nn(Cc2ccc(-c3noc(C(F)(F)F)n3)cc2)c2ccccc12 [compound 43] | 96% | 100% | 
COC(=O)c1cccc2cn(Cc3ccc(-c4noc(C(F)(F)F)n4)cc3)nc12 [compound 50] | 28% | 13% | 
O=C1c2ccnn2CCN1Cc1ccc(-c2noc(C(F)(F)F)n2)cc1 [compound 297] | 93% | 100% | 
O=C(NCCCl)c1coc(Cc2ccc(-c3noc(C(F)(F)F)n3)cc2)n1 [Compound 204, N-(2-chloroethyl)-2-[[4-[5-(trifluoromethyl)-1,2,4-oxadiazol-3-yl]phenyl]methyl]-4-oxazolecarboxamide] |  |  | pest or weed control at 10 µg/mL [1]: 100%; pest or weed control at 10 µg/mL [2]: 100%
CCOc1ccccc1OCCOC(=O)c1cnn(Cc2ccc(-c3noc(C(F)(F)F)n3)cc2)c1 [compound 268] | 86% | 100% | 
O=Cc1cnn(Cc2ccc(-c3noc(C(F)(F)F)n3)s2)c1 [compound 197] | 98% | 99% | 
C=C(Br)COC(=O)c1cnn(Cc2ccc(-c3noc(C(F)(F)F)n3)cc2)c1 [compound 167] | 100% | 100% | 
CC(C)OC(=O)c1cnn(Cc2cc(-c3noc(C(F)(F)F)n3)cs2)c1 [compound 251] | 74% | 100% | 
O=C(OCCBr)c1cnn(Cc2ccc(-c3noc(C(F)(F)F)n3)cc2)c1 [compound 478] |  |  | Test C disease control rating [1, 5]: 19%; Test A disease control rating [2, 6]: 81%
COc1ccc2c(C#N)n(Cc3ccc(-c4noc(C(F)(F)F)n4)cc3)nc2c1 [compound 121] | 0% | 87% | 
O=C(NCc1ccccc1)c1cnn(Cc2ccc(-c3noc(C(F)(F)F)n3)cc2)c1 [compound 484] |  |  | Test C disease control rating ([1]; 10 ppm test suspension, wheat seedlings, 100 = 100% disease control, 0 = no control): 100%; Test A disease control rating ([2]; 10 ppm test suspension, soybean seedlings, 100 = 100% disease control, 0 = no control): 100%
CCOC(=O)c1cc(C(C)C)nn1Cc1ccc(-c2noc(C(F)(F)F)n2)cc1 [compound 82] | 0% | 0% | 
CCOC(=O)c1cnn(Cc2ccc3cc(-c4noc(C(F)(F)F)n4)ccc3c2)c1 [compound 457] |  |  | Test C disease control rating [1, 5]: 0%; Test A disease control rating [2, 6]: 77%
N#CCNC(=O)c1nn(Cc2ccc(-c3noc(C(F)(F)F)n3)cc2)c2ccccc12 [compound 44] | 95% | 100% | 
COC(=O)C1COC(Cc2ccc(-c3noc(C(F)(F)F)n3)cc2)=N1 (stereo not drawn) [Compound 74, methyl 4,5-dihydro-2-[[4-[5-(trifluoromethyl)-1,2,4-oxadiazol-3-yl]phenyl]methyl]-4-oxazolecarboxylate] |  |  | pest or weed control at 10 µg/mL [1, 3]: 51%; pest or weed control at 10 µg/mL [2, 4]: 99%
COC(=O)c1cccc2c1cnn2Cc1ccc(-c2noc(C(F)(F)F)n2)cc1 [Compound 49, methyl 1-[[4-[5-(trifluoromethyl)-1,2,4-oxadiazol-3-yl]phenyl]methyl]-1H-indazole-4-carboxylate] |  |  | pest or weed control at 10 µg/mL [1, 3]: 100%; pest or weed control at 10 µg/mL [2, 4]: 100%
COC(=O)c1ccc2nn(Cc3ccc(-c4noc(C(F)(F)F)n4)cc3)cc2c1 [compound 35] | 98% | 100% | 
